The target in test [1] is Ba/F3-Δ19del/T790M/C797S (Homo sapiens, UniProt P00533, T790M/C797S, cells depend on it, form not given). Description: Ba/F3-Δ19del/T790M/C797S cell proliferation assay (CellTiter Glo, 72 h). The conditions noted are these: CTG, read-out: BaF3 Δ19del/T790M/C797S IC50. Type of test: cell-based. As for the experimental part: (§1) Cell line: Ba/F3 cells with stable overexpression of Δ19del/T790M/C797S or L858R/T790M/C797S mutant genes, named Ba/F3-Δ19del/T790M/C797S and Ba/F3-L858R/T790M/C797S, and A431 EGFR wild-type cell line.
(§2) RPMI 1640 and 10% FBS and 1% PS; _EM, 10% PBS and 1% PS
(§3) a) Dilute the test compound (20 mM stock solution) to 10 mM with 100% DMSO as the starting concentration, and then serially dilute 3 times with a “9+0” concentration in 96-well dilution plate (Cat #P-05525, Labcyte);
(§4) b) Dilute compound solution thereof to 1:100 in medium to prepare 10-fold working solution;
(§5) a) Centrifuge the growth cells in logarithmic phase at 1000 rpm for 5 minutes, resuspend the cells in culture medium, and then count the cells;
(§6) b) Inoculate the cells into a 96-well cell culture plate with a density of 2000 cells/well;
(§7) a) The compound prepared in Step 2 was added to a cell plate with 15 μL per well at final concentrations of 1000, 333, 111.1, 37, 12.3, 4.1, 1.4, 0.5, 0.2, and 0 nM. The final concentration of DMSO was 0.1%. The blank control well is with medium (0.1% DMSO).
(§8) b) Incubate cells in an incubatorother 72 hours;
(§9) a) Take out the 96-well cell culture plate and add 50 μl CTG reagent (CellTiter Glo kit, promega, Cat #G7573);
(§10) b) Shake the plate for 2 minutes and let cool at room temperature for 10 minutes,
(§11) c) Read luminous signal value with Perkin Elmer reader.
(§12) Analysis of Experimental Data
(§13) The data were analyzed by GraphPad Prism 6.0 software to obtain the fitting curve of compound activity.
(§14) Fining compound IC50 from nonlinear regression equation:
(§15) Y=Min+(Max−Min)/(1+10^((LogIC50−X)*slope));
(§16) X: Logarithm of compound concentration; Y: luminous signal
(§17) As illustrated in examples, IC50 value is within the following range for the compound of the present invention: “A” represents “IC50≤50 nM”; “B” represents “50 nM<IC50<100 nM”.
(In ATP-based viability assays light output follows the ATP content of the culture.)

Test [2] has as its target Ba/F3-L858R/T790M/C797S (Homo sapiens, UniProt P00533, T790M/C797S/L858R, cells depend on it). Description: Ba/F3-L858R/T790M/C797S cell proliferation assay (CellTiter Glo, 72 h). Type of test: cell-based. The conditions noted are these: CTG, read-out: BaF3 L858R/T790M/C797S IC50. As for the experimental part: as §1, §2, §3, §4, §5, §6, §7, §8, §9, §10, §11, §12, §13, §14, §15, §16, §17

The target of test [3] is EGFR Δ19del/T790M/C797S (Homo sapiens, UniProt P00533, T790M/C797S, form not given). The test can be described thus: EGFR Δ19del/T790M/C797S kinase test (mobility shift, Caliper EZ Reader). Format: biochemical. To be noted: kinase enzymatic activity. As for the experimental part:
Mobility variation analysis was performed to determine the affinity of the compound for EGFRΔ19del/T790M/C797S. The enzymatic reaction scheme is as follows:
1. Prepare 1* kinase buffer as follows:
2. Preparation of compound concentration gradient: The test compound was tested with an initial concentration of 3000 nM or 100 nM, diluted in a 384 source plate to a 100% DMSO solution with 100-fold final concentration, and the compound is 3-fold diluted with Precision to 10 concentrations. A dispenser Echo 550 was used to transfer 250 nL 100-fold final concentration of the compound to the target plate OptiPlate-384F.
3. Prepare 2.5-fold final concentration of kinase solution with 1×Kinase buffer;
4. Add 10 μL of 2.5-fold final concentration of kinase solution to the compound well and the positive control well; add 10 μL of 1×Kinase buffer to the negative control well.
5. Centrifuge at 1000 rpm for 30 seconds, shake the reaction plate for well mixation, and then incubate at room temperature for 10 minutes.
6. Prepare a mixture of ATP and Kinase substrate at 5/3-fold final concentration with 1×Kinase buffer.
7. Add 15 μL mixture of 5/3-fold final concentration of ATP and substrate to start reaction.
8. Centrifuge the 384-well plate at 1000 rpm for 30 seconds, shake it well and then incubate it at room temperature for corresponding time.
9. Add 30 μL of stop detection solution to stop the kinase reaction, centrifuge at 1000 rpm for 30 seconds, shake it well.
10. Read conversion rate with Caliper EZ Reader.
% Inhibition=((Conversion%_max−Conversion%_sample)/(Conversion%_max−Conversion%_min))*100
Wherein: Conversion%_sample is the sample conversion rate reading; Conversion%_min: Mean value of negative control wells, representing the conversion rate reading of wells without enzymatic activity; Conversion%_max: Mean value of positive control wells, representing the conversion rate reading of wells without compound inhibition.
The dose-effect curve was fitted with concentration log value as X-axis and percentage inhibition rate as Y-axis. Log (inhibitor) vs. Response—Variable Slope of GraphPad Prism 5 was used to fit the dose-effect curve to obtain IC50 value of enzymatic activity for each compound.
The calculation formula is as Y=Bottom (Top−Bottom)/(1+10^((LogIC50−X)*HillSlope)).
As illustrated in examples, IC50 value is within the following range for the compound of the present invention: “A” represents “IC50≤1nM”; “B” represents “1 nM<IC50≤100nM”.

In test [4] the test system is A431 EGFR wild-type cell line. Description: A431 EGFR wild-type cell proliferation assay (CellTiter Glo, 72 h). The conditions noted are these: Homo sapiens, A-431, CTG, read-out: A431 EGFR WT IC50. Format: cell-based. As for the experimental part:
as §1, §2, §3, §4, §5, §6, §7, §8, §9, §10, §11, §12, §13, §14, §15, §16, §17

The record followed here is patent US20220259235A1, “EGFR Inhibitor, Composition, and Preparation Method Therefor” (BETTA PHARMACEUTICALS CO., LTD, priority 2019, published 2022).

The term IC50 denotes the concentration that inhibits the measured activity by half.

Like-named read-outs stand apart in the source and are kept apart here.

Chain of EGFR Δ19del/T790M/C797S (P00533 with tags, fused parts or gaps DEL746-750/T790M/C797S, form open): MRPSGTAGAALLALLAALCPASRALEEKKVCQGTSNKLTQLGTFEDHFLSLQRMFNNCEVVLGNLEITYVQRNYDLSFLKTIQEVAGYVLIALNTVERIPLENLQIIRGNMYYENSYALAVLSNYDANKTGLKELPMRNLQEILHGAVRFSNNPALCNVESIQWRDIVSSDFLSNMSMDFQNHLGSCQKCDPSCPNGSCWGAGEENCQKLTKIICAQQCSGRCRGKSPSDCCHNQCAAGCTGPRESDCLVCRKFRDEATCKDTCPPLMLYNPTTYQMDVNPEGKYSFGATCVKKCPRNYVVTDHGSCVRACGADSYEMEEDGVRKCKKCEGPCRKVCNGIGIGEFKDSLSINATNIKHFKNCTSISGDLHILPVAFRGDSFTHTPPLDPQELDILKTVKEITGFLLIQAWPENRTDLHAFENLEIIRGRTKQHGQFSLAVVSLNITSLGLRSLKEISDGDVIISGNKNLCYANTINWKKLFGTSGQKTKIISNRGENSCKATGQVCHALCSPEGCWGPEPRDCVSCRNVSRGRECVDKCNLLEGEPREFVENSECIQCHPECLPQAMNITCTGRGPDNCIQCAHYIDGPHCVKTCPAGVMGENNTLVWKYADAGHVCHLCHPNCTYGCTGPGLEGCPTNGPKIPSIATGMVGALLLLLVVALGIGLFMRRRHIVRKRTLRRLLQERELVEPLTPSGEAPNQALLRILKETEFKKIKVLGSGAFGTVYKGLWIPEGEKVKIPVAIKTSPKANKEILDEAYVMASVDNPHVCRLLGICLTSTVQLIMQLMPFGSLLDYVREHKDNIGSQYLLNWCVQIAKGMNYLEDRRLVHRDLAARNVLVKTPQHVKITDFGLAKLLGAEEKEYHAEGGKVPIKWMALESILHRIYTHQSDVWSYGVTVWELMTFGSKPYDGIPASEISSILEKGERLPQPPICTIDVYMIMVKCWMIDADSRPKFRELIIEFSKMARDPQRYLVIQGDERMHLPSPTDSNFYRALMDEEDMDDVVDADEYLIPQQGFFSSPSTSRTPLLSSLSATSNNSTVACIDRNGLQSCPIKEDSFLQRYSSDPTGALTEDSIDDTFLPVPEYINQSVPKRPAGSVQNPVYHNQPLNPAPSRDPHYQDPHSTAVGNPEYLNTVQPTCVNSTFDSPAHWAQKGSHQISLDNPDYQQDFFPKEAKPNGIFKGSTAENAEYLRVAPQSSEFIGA
Chain of Ba/F3-Δ19del/T790M/C797S (P00533 with tags, fused parts or gaps DEL746-750/T790M/C797S, form open): as above
Chain of Ba/F3-L858R/T790M/C797S (P00533 whole entry T790M/C797S/L858R): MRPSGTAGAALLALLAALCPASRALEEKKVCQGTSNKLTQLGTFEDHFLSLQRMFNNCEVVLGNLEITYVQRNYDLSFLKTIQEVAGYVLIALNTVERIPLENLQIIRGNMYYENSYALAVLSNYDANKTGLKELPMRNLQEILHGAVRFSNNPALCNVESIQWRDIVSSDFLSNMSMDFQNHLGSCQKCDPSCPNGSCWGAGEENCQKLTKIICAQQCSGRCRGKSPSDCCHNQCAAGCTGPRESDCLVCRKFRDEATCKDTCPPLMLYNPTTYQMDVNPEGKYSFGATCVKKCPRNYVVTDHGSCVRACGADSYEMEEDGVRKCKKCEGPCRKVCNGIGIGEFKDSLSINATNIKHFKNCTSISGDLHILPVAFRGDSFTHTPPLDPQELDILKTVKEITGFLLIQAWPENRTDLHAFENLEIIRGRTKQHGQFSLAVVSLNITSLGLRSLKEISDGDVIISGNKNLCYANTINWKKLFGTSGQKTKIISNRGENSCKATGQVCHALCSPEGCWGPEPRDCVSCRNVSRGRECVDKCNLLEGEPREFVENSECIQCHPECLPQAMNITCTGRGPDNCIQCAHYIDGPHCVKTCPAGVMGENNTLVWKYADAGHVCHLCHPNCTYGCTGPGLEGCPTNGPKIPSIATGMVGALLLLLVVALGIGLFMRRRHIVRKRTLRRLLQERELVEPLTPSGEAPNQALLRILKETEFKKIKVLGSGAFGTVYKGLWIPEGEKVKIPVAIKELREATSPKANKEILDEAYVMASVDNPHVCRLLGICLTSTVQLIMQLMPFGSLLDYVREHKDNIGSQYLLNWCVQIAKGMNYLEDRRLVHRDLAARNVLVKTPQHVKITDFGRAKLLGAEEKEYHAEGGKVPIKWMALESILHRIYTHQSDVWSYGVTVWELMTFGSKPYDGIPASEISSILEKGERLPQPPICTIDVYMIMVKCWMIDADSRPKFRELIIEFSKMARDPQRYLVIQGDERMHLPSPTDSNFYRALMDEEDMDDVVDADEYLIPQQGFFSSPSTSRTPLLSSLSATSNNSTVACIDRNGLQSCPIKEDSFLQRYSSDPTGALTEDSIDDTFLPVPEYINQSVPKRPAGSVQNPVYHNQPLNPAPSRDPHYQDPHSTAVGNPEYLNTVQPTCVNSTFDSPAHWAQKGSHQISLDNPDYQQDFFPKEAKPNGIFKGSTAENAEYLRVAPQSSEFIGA

`COc1cc(N2CCN3CCCCC3C2)c(-c2cnn(C)c2)cc1Nc1ncc(Cl)c(Nc2ccc3nccnc3c2P(C)(C)=O)n1` (stereo in doubt) [Compound 18]: the figures for the GI50 in test [1] (numeric values) and in test [2] (numeric values) were 6.7 nM and 8.2 nM, respectively. In addition, the IC50 in test [3] (numeric values) came to 0.2 nM; in test [4], 112 nM.
For `COc1cc(N2CCC(N(C)C)CC2)c(-c2cnn(C)c2)cc1Nc1ncc(Cl)c(Nc2ccc3nccnc3c2P(C)(C)=O)n1` [Compound 2], the values for the GI50 in test [1] (numeric values) and in test [2] (numeric values) were 6.5 nM and 18.3 nM, respectively. The figures for the IC50 in test [3] (numeric values) and in test [4] were 0.2 nM and 110 nM, respectively.
Take `COc1cc(N2CCC(N(C)C)CC2)c(-c2cn[nH]c2)cc1Nc1ncc(Cl)c(Nc2ccc3nccnc3c2P(C)(C)=O)n1` [Compound 3, (6-((5-Chloro-2-((4-(4-(dimethylamino)piperidin-1-yl)-2-methoxy-5-(1H-pyrazol-4-yl)benzene)amino)pyrimidin-4-yl)amino)quinoxalin-5-yl)dimethylphosphine oxide]: the GI50 in test [1] (numeric values) and in test [2] (numeric values) was 60.4 nM each time. Also, the IC50 in test [3] (numeric values) was determined as 0.3 nM; in test [4] it was 571 nM.
As for `COc1cc(N2CCC(N(C)C)CC2)c(-c2cnn(C)c2)cc1Nc1ncc(Cl)c(Nc2ccc(C)c(C)c2P(C)(C)=O)n1` [Compound 4, (6-((5-Chloro-2-((4-(4-(dimethylamino)piperidine-1-yl)-2-methoxy-5-(1-methyl-1H-pyrazole-4-yl)phenyl)amino)pyrimidine-4-yl)amino)-2,3-dimethylphenyl)dimethylphosphine oxide], the GI50 in test [1] (numeric values) was 10.2 nM; in test [2] (numeric values) it was 14.9 nM. Further, the IC50 is at most 1 nM in test [3] (class symbols) and 192 nM in test [4].
With `COc1cc(N2CCOCC2)c(-c2cnn(C)c2)cc1Nc1ncc(Cl)c(Nc2ccc3nccnc3c2P(C)(C)=O)n1` [Compound 9], the GI50 in test [1] (numeric values) turned out to be 8 nM; in test [2] (numeric values), 16.8 nM. For the same molecule, the IC50 in test [3] (numeric values) came to 0.3 nM; in test [4], 252 nM.
For `COc1cc(N2CCOCC2)c(-c2cnn(C)c2)cc1Nc1ncc(Br)c(Nc2ccc3nccnc3c2P(C)(C)=O)n1` [Compound 16], the GI50 in test [1] (class symbols) and in test [2] (class symbols) was at most 50 nM each time. Further, the IC50 in test [3] (class symbols) was at most 1 nM.
As to `COc1cc(N2CCC(N3CCN(C)CC3)CC2)c(-c2cnn(C(F)F)c2)cc1Nc1ncc(Br)c(Nc2ccc3nccnc3c2P(C)(C)=O)n1` [Compound 17], the GI50 in test [1] (numeric values) worked out at 3.5 nM; in test [2] (numeric values), 3.8 nM. Also, the IC50 was found to be 0.3 nM in test [3] (numeric values) and 120 nM in test [4].
Take `CCn1cc(-c2cc(Nc3ncc(Br)c(Nc4ccc5nccnc5c4P(C)(C)=O)n3)c(OC)cc2N2CCC(N3CCN(C)CC3)CC2)cn1` [Compound 19]: the GI50 came out at 1 nM in test [1] (numeric values) and 1.3 nM in test [2] (numeric values). The IC50 in test [3] (numeric values) came out at 0.3 nM; in test [4], 135 nM.
In the case of `CCn1cc(-c2cc(Nc3ncc(Br)c(Nc4ccc(C)c(C)c4P(C)(C)=O)n3)c(OC)cc2N2CCC(N3CCCCC3)CC2)cn1` [Compound 20], the results for the GI50 in test [1] (numeric values) and in test [2] (numeric values) were 0.7 nM and 0.4 nM, respectively. The IC50 came to 0.2 nM in test [3] (numeric values) and 152 nM in test [4].
In the same order, the values of `CCn1cc(-c2cc(Nc3ncc(Br)c(Nc4ccc(C)c(C)c4P(C)(C)=O)n3)c(OC)cc2N2CCOCC2)cn1` [Compound 21] are 0.7 nM, 3.6 nM, 0.3 nM and 465 nM.
In the same order, the values of `CCn1cc(-c2cc(Nc3ncc(Br)c(Nc4ccc(C)c(C)c4P(C)(C)=O)n3)c(OC)cc2N2CCC(N3CCN(C)CC3)CC2)cn1` [Compound 22, (6-((5-Bromo-2-((5-(1-ethyl-1h-pyrazol-4-yl)-2methoxy-4-(4-(4-methylpiperazine-1-yl)piperidin-1-yl)phenyl)amino)pyrimidine-4-yl)amino)-2,3-dimethylphenyl)dimethylphosphine oxide] are 24.6 nM, 31.1 nM, 4.2 nM and 3260 nM.
For the molecule `COc1cc(N2CCN(C3CCCC3)CC2)c(-c2cnn(C)c2)cc1Nc1ncc(Br)c(Nc2ccc3nccnc3c2P(C)(C)=O)n1` [Compound 25, (6-((5-Bromo-2-((4-(4-cyclopentylpiperazine-1yl)-2-methoxy-5-(1-methyl-1H-pyrozole-4-yl)phenyl)amino)pyrimidin-4-yl)amino)quinoxalin-5-yl) dimethylphosphine oxide], the GI50 in test [1] (numeric values) stood at 2.5 nM; in test [2] (numeric values), 4 nM. Moreover, the IC50 is 0.3 nM in test [3] (numeric values) and 107 nM in test [4].
For `COc1cc(N2CCN(C3CCCC3)CC2)c(-c2cnn(C)c2)cc1Nc1ncc(Br)c(Nc2ccc(C)c(C)c2P(C)(C)=O)n1` [Compound 26, (6-((5-Bromo-2-((4-(4-cyclopentylpiperazine-1-yl)-2-methoxy-5-(1-methyl-1H-pyrazole-4-yl)phenyl)amino)pyrimidin-4-yl)amino)-2,3-dimethylphenyl)dimethylphoshine oxide], in that order: 4.6 nM, 2.8 nM, 0.2 nM and 241 nM.
`COc1cc(N2CCN(C3CCCC3)CC2)c(-c2cnn(C)c2)cc1Nc1ncc(Br)c(Nc2ccc3nc(C4CC4)ccc3c2P(C)(C)=O)n1` [Compound 27, (6-((5-Bromo-2-((4-(4-cyclopentylpiperazine-1-yl)-2-methoxy-5-(1-methyl-1H-pyrazole-4-Yl)phenyl)amino)pyrimidin-4-yl)amino)-2-cyclopropylquinolin-5-yl)dimethylphosphine oxide]: the GI50 in test [2] (numeric values) is 8.7 nM. The IC50 in test [3] (numeric values) was 1.3 nM; in test [4] it was 1170 nM.
Regarding `COc1cc(N2CCC(N3CCN(C)CC3)CC2)c(-c2cnn(C)c2)cc1Nc1ncc(Cl)c(Nc2ccc3nc(C4CC4)ccc3c2P(C)(C)=O)n1` [Compound 28, (6-((5-Chloro-2-((2-methoxy-5-(1-methyl-1H-pyrazol-4-yl)-4-(4-(4-methylpiperazine-1-yl)piperidine-1-yl)phenyl)amino)pyrimidin-4-yl)amino)-2-cyclopropylquinolin-5-yl)dimethylphosphine oxide], the GI50 in test [1] (numeric values) is 1 nM; in test [2] (numeric values) it was 6.6 nM. For the same molecule, the IC50 stood at 0.31 nM in test [3] (numeric values) and 201 nM in test [4].
